Values quoted from earlier work in paper PMC12281572.

assay: FTIR, 4-fluorophenol as donor (the pK_BHX database, per the paper); details: CCl4; 25 C

Structure (SMILES)	pK_BHX (log10 Kf of the 1:1 H-bond complex with 4-fluorophenol, by FTIR)
CC(=O)c1ccc(C23CC4CC(CC(C4)C2)C3)cc1	1.3 log units
CN=C(c1ccc(C)cc1)N(C)C	2.72 log units
CC(=O)c1ccc(C(C)=O)cc1	0.92 log units
CC(=Nc1cccc(Cl)c1)N(C)c1ccccc1	1.24 log units
COc1cccc(N=C(c2ccccc2)N(C)c2ccccc2)c1	1.41 log units
Nc1ccccn1	2.12 log units
CN(C)C1=CC(=O)CC(C)(C)C1	2.92 log units
CCCN(CCC)CCC	1.47 log units
COc1cc(C#N)cc(OC)c1	0.78 log units
CNCCC#N	1.37 log units
NCc1ccccc1	1.84 log units
O=[N+]([O-])c1ccc(C23CC4CC(CC(C4)C2)C3)cc1	0.42 log units
[O-][n+]1cc(Cl)cc(Cl)c1	1.56 log units
CCNC(C)=O	2.29 log units
N#CC1CCCCC1	0.97 log units
C#CCNC	1.64 log units
Fc1cccc(C2=NCCC2)c1	1.66 log units
Cc1ccccc1C	-0.27 log units
CCOC(=O)N(c1ccccc1)c1ccccc1	1.45 log units
c1ccc2c(c1)cnc1ccccc12	1.87 log units
CCC#CCC	-0.1 log units
CN(C)S(=O)(=O)c1ccccc1	0.89 log units
CC(C)(C)C#N	0.99 log units
O=CN1CCOCC1	1.93 log units
CN(C)C(=O)N(c1ccccc1)c1ccccc1	2.08 log units
Cc1ccc(C(=S)N(C)C)cc1	1.15 log units

Structure (SMILES)	pK_BHX (log10 Kf of the 1:1 H-bond complex with 4-fluorophenol, by FTIR)
c1ccc(-c2ccnc3c2ccc2c(-c4ccccc4)ccnc23)cc1	3.26 log units
C1CCC2OC2C1 (stereo not shown)	1.13 log units
CCN(CC)c1ccc(C(=O)c2ccc(N(CC)CC)cc2)cc1	2.33 log units
CCCN(C)C	1.98 log units
N#Cc1cccc(C(F)(F)F)c1	0.53 log units
c1ccc2scnc2c1	1.29 log units
Cc1cccc(NC(=Nc2ccccc2)c2ccccc2)c1	1.4 log units
c1ncn(C2CCCCC2)c1C1CCCCC1	3.12 log units
CCOC(=O)CC	1.08 log units
NCCN	2.25 log units
CN1CCN(C)C1=O	2.46 log units
CC1(C)CCCC(C)(C)N1	1.88 log units
c1cocn1	1.3 log units
c1ccc(C2=NCCC2)cc1	1.98 log units
CN1CCc2ccccc2C1	1.8 log units
CN(C)c1ccc(C(=O)c2ccccc2)cc1	1.67 log units
CC(=O)c1cccc(C(C)=O)c1	0.86 log units
CN(C)Cc1ccccc1	1.59 log units
O=C1CCCCC1	1.39 log units
N#Cc1c(F)c(F)c(F)c(F)c1F	0.01 log units
CC(=Nc1ccc(Br)cc1)Nc1ccccc1	1.36 log units
CN(C)C(=O)C(F)(F)F	1.04 log units
FC(F)(F)c1cccc(C2CCCN2)c1 (stereo not shown)	1.38 log units
O=c1c(-c2ccccc2)c1-c1ccccc1	2.3 log units
C=COCC	0.1 log units
CC(=Nc1ccc(Br)cc1)Nc1ccc(C)cc1	1.58 log units

Structure (SMILES)	pK_BHX (log10 Kf of the 1:1 H-bond complex with 4-fluorophenol, by FTIR)
C1C2CC3CC1CC(C2)C31OC12C1CC3CC(C1)CC2C3 (stereo not shown)	1.44 log units
FC12CC3CC(C1)CC(F)(C3)C2	0.0 log units
C1CNC1	2.59 log units
CNC(=O)c1ccccc1	2.03 log units
CCCCCCCCP(=O)(CCCCCCCC)CCCCCCCC	3.59 log units
CC(=Nc1ccccc1)N(C)c1ccccc1	1.65 log units
CC(=Nc1ccc(Br)cc1)N(C)c1ccc(C)cc1	1.43 log units
COc1ccc(C(=O)c2ccc(OC)cc2)cc1	1.49 log units
CCC(=O)N(C)C	2.36 log units
CCCN	2.2 log units
CN(C)c1cccc2cccc(N(C)C)c12	-0.24 log units
CCO	1.02 log units
CCN(CC)CC(F)(F)F	0.23 log units
CC12CCC(CC1=N[N+](=O)[O-])C2(C)C (stereo not shown)	0.34 log units
CN=C(c1ccccc1)N(C)C	2.62 log units
O=C1CCCCO1	1.57 log units
C1CN2CCN1CC2	2.33 log units
Fc1ccccn1	0.95 log units
CC(C)I	-0.37 log units
CSCSC	-0.22 log units
Cc1cccnc1	2.0 log units
N#Cc1ccccc1F	0.64 log units
CC(C)OC(C)C	1.11 log units
Fc1ccc(N=C(Nc2ccccc2)c2ccccc2)cc1	1.25 log units
